Several values for one entry are separate records, joined by “and”; a condition that tells them apart may be missing. Equal entries are not always repeated. Numbers after ± are expanded uncertainties.
Tests used:
[1] = xn = mol fraction of the nth substance listed; settings: 101 kPa, Liquid, Vibrating tube method
[2] = 101.33 kPa, Liquid, Vibrating tube method

CCC(C)O (centres undefined) [butan-2-ol] + CCOC(C)=O
mass density [kg/m3], [1]
Settings | 298.15 K | 303.15 K | 313.15 K
x1 = 0.0603 | 888.5 ± 0.1 | 882.5 ± 0.1 | 870.2 ± 0.1
x1 = 0.1109 | 883.2 ± 0.1 | 877.6 ± 0.1 | 865.6 ± 0.2
x1 = 0.1511 | 878.9 ± 0.1 | 873.2 ± 0.1 | 861.4 ± 0.2
x1 = 0.1998 | 873.8 ± 0.1 | 868.6 ± 0.1 | 857.1 ± 0.2
x1 = 0.2502 | 868.8 ± 0.2 | 863.5 ± 0.2 | 852.5 ± 0.2
x1 = 0.302 | 863.6 ± 0.2 | 858.4 ± 0.2 | 847.5 ± 0.2
x1 = 0.3489 | 858.9 ± 0.2 | 853.9 ± 0.2 | 843.2 ± 0.2
x1 = 0.3988 | 854.1 ± 0.2 | 849.2 ± 0.2 | 838.7 ± 0.2
x1 = 0.4506 | 849.4 ± 0.2 | 844.4 ± 0.2 | 834.3 ± 0.2
x1 = 0.5011 | 844.6 ± 0.2 | 839.9 ± 0.2 | 829.9 ± 0.2
x1 = 0.5631 | 839 ± 0.2 | 834.3 ± 0.2 | 824.5 ± 0.2
x1 = 0.601 | 835.6 ± 0.2 | 830.9 ± 0.2 | 821.2 ± 0.2
x1 = 0.6501 | 831.1 ± 0.2 | 826.8 ± 0.2 | 817.3 ± 0.2
x1 = 0.7032 | 826.5 ± 0.2 | 822.4 ± 0.2 | 812.9 ± 0.2
x1 = 0.752 | 822.5 ± 0.2 | 818.3 ± 0.2 | 808.9 ± 0.2
x1 = 0.8012 | 818.4 ± 0.2 | 814 ± 0.2 | 805.1 ± 0.2
x1 = 0.8498 | 814.6 ± 0.2 | 810.1 ± 0.2 | 801.4 ± 0.2
x1 = 0.9028 | 810.3 ± 0.2 | 805.8 ± 0.2 | 797.4 ± 0.2
x1 = 0.9519 | 806.7 ± 0.2 | 802.4 ± 0.2 | 794.4 ± 0.2

CCOC(C)=O [ethyl acetate] + CCCCO
mass density [kg/m3], [1]
Settings | 298.15 K | 303.15 K | 313.15 K
x2 = 0.0904 | 886.5 ± 0.1 | 880.4 ± 0.1 | 869.6 ± 0.1
x2 = 0.1337 | 882.3 ± 0.1 | 876.8 ± 0.1 | 866 ± 0.1
x2 = 0.2525 | 871.5 ± 0.1 | 866.7 ± 0.1 | 856.6 ± 0.1
x2 = 0.3723 | 860.7 ± 0.1 | 856.6 ± 0.1 | 846.8 ± 0.2
x2 = 0.4807 | 851 ± 0.1 | 847.5 ± 0.2 | 838 ± 0.2
x2 = 0.5955 | 840.9 ± 0.1 | 838 ± 0.2 | 828.8 ± 0.2
x2 = 0.7032 | 831.5 ± 0.1 | 828.8 ± 0.2 | 820.1 ± 0.2
x2 = 0.8009 | 823 ± 0.2 | 820.6 ± 0.2 | 812.3 ± 0.2
x2 = 0.8916 | 815.1 ± 0.2 | 813 ± 0.2 | 805 ± 0.2
x2 = 0.9641 | 808.6 ± 0.2 | 806.7 ± 0.2 | 799.4 ± 0.2
x2 = 0.9795 | 807.3 ± 0.2 | 805.3 ± 0.2 | 798.1 ± 0.2

CCCCCCCC[N+](C)(CCCCCCCC)CCCCCCCC.O=S(=O)([N-]S(=O)(=O)C(F)(F)F)C(F)(F)F + CCC(C)O
mass density [kg/m3], [1]
Settings | x1 = 0.0654 | x1 = 0.1397 | x1 = 0.2623 | x1 = 0.3282 | x1 = 0.4054 | x1 = 0.5045 | x1 = 0.6051 | x1 = 0.7046 | x1 = 0.808 | x1 = 0.9067
298.15 K | 894.2 ± 0.2 | 956.2 ± 0.2 | 1013.8 ± 0.3 | 1033.4 ± 0.3 | 1050.6 ± 0.4 | 1066.7 ± 0.5 | 1078.5 ± 0.7 | 1087.3 ± 0.8 | 1094.6 ± 1 | 1100.8 ± 1.2
303.15 K | 890.3 ± 0.2 | 952.7 ± 0.2 | 1010.2 ± 0.3 | 1029.7 ± 0.3 | 1046.9 ± 0.4 | 1063 ± 0.5 | 1074.8 ± 0.7 | 1083.7 ± 0.8 | 1091 ± 1 | 1097.2 ± 1.2
313.15 K | 882.6 ± 0.2 | 945.3 ± 0.2 | 1003.1 ± 0.3 | 1022.5 ± 0.3 | 1039.7 ± 0.4 | 1055.7 ± 0.5 | 1067.6 ± 0.7 | 1076.5 ± 0.8 | 1083.9 ± 1 | 1090 ± 1.2

CCCCCCCC[N+](C)(CCCCCCCC)CCCCCCCC.O=S(=O)([N-]S(=O)(=O)C(F)(F)F)C(F)(F)F + CC(C)O
mass density [kg/m3], [1]
Settings | x1 = 0.053 | x1 = 0.1 | x1 = 0.2045 | x1 = 0.2841 | x1 = 0.3934 | x1 = 0.4824 | x1 = 0.5896 | x1 = 0.7066 | x1 = 0.7967 | x1 = 0.896
298.15 K | 876.9 ± 0.2 | 932.6 ± 0.2 | 1004.9 ± 0.2 | 1033.8 ± 0.2 | 1056.2 ± 0.3 | 1067.6 ± 0.4 | 1078.9 ± 0.6 | 1089 ± 0.8 | 1095.2 ± 0.9 | 1100.5 ± 1.1
303.15 K | 873 ± 0.2 | 928.9 ± 0.2 | 1001.5 ± 0.2 | 1030.3 ± 0.2 | 1052.6 ± 0.3 | 1063.9 ± 0.4 | 1075.2 ± 0.6 | 1085.4 ± 0.8 | 1091.6 ± 0.9 | 1096.9 ± 1.1
313.15 K | 865.1 ± 0.2 | 921.3 ± 0.2 | 994.7 ± 0.2 | 1023.3 ± 0.2 | 1045.1 ± 0.3 | 1056.6 ± 0.4 | 1068.1 ± 0.6 | 1078.3 ± 0.8 | 1084.4 ± 0.9 | 1089.5 ± 1.1

CCCCCCCC[N+](C)(CCCCCCCC)CCCCCCCC.O=S(=O)([N-]S(=O)(=O)C(F)(F)F)C(F)(F)F
[2]
Settings | mass density [kg/m3]
298.15 K | 1106.9 ± 1.1
303.15 K | 1103.2 ± 1.1
313.15 K | 1095.7 ± 1

CCCCCCCC[N+](C)(CCCCCCCC)CCCCCCCC.O=S(=O)([N-]S(=O)(=O)C(F)(F)F)C(F)(F)F + CCCCO
mass density [kg/m3], [1]
Settings | x1 = 0.0654 | x1 = 0.1421 | x1 = 0.2623 | x1 = 0.3284 | x1 = 0.4437 | x1 = 0.5343 | x1 = 0.6385 | x1 = 0.7397 | x1 = 0.8432 | x1 = 0.9195
298.15 K | 898.1 ± 0.1 | 962 ± 0.2 | 1018 ± 0.2 | 1037.3 ± 0.2 | 1060.4 ± 0.4 | 1072.8 ± 0.5 | 1083.4 ± 0.6 | 1091 ± 0.8 | 1097.9 ± 1 | 1102.1 ± 1.2
303.15 K | 894.3 ± 0.1 | 958.6 ± 0.1 | 1014.6 ± 0.2 | 1033.9 ± 0.2 | 1056.8 ± 0.4 | 1069.1 ± 0.5 | 1079.8 ± 0.6 | 1087.4 ± 0.8 | 1094.2 ± 1 | 1098.6 ± 1.2
313.15 K | 887.2 ± 0.1 | 951.8 ± 0.2 | 1007.6 ± 0.2 | 1026.9 ± 0.2 | 1049.7 ± 0.4 | 1062.1 ± 0.5 | 1072.7 ± 0.6 | 1080.5 ± 0.8 | 1087.2 ± 1 | 1091.6 ± 1.2

CCCCCCCC[N+](C)(CCCCCCCC)CCCCCCCC.O=S(=O)([N-]S(=O)(=O)C(F)(F)F)C(F)(F)F + CCOC(C)=O
mass density, [1]
Settings | x1 = 0.1167 | x1 = 0.2291 | x1 = 0.4417 | x1 = 0.5433 | x1 = 0.7037 | x1 = 0.7993 | x1 = 0.9209
298.15 K | 848.1 ± 150 kg/m3 and 989.9 ± 0.1 kg/m3 | 1034.5 ± 0.8 kg/m3 | 1074.7 ± 0.4 kg/m3 | 1085.4 ± 0.5 kg/m3 | 1096.7 ± 0.8 kg/m3 | 1101.3 ± 1 kg/m3 | 1105.4 ± 1.2 kg/m3
303.15 K | 984.9 ± 0.3 kg/m3 | 1029.5 ± 0.2 kg/m3 | 1069.6 ± 0.4 kg/m3 | 1080.3 ± 0.5 kg/m3 | 1091.5 ± 0.8 kg/m3 | 1096.2 ± 0.9 kg/m3 | 1100.5 ± 1.2 kg/m3
313.15 K | 974.9 ± 0.1 kg/m3 | 1020.9 ± 0.2 kg/m3 | 1062.5 ± 0.4 kg/m3 | 1073.4 ± 0.5 kg/m3 | 1085 ± 0.8 kg/m3 | 1089.6 ± 0.9 kg/m3 | 1062.5 ± 50 kg/m3 and 1094.1 ± 1.2 kg/m3
